From patent US20160310524A1, “COMPOSITIONS AND METHODS FOR TREATING DYSREGULATED SYSTEMS” (priority 2013, published 2016) come the findings set out here.

Common to all, as to format: in vivo
In series [1] the test system is patients where involvement with glutamate is suspected. Briefly: Low dose (Trojan horse) treatment of patients where involvement with glutamate is suspected. From the text: For example one of the stimulating systems in the body is the glutamate receptor mechanism. Some of the biggest challenges in neuropsychiatric pharmacology is breaking through the defenses of these “buffered” systems like NMDA. The “Trojan horses” can enter into the receptor mechanism and change it without disturbing the situation. This explains why certain diseases that are not well treated, such as autism, have responded to any number of treatments but none of them consistently. If the balance between more autistic and less autistic behavior is very much leaning toward improved socialization, then perhaps any “Trojan horse” that can slip past the “fortress” of the glutamate receptors that are refusing to participate may add enough positive to affect socialization and the child has a miraculous response to the minute dose of medicine.
Examples: low dose Abilify and mecamylamine have been successful in treating patients where involvement with glutamate is suspected. Indeed we have few disorders that are known to be caused by glutamate despite the large role it plays in brain function. One medication that has been used for several years is Mematine, which is supposed to help memory in patients with Alzheimer's. […] Another example is the destructive flashbacks seen when individuals have taken PCP. […]

A short description of series [2]: Effect of memantine on socialization in people. Conditions: in many people.
Series [3] relates to subject with dissociation disorder. The series is described as follows: Example protocol for memantine (Namenda) in dissociation disorder: sample chart for an example patient. As to the method: Example Protocol for Memantine (Namenda®)
Day 1: Give Namenda ½ of a 5 mg tablet in the morning.
Day 2: If the patient has absolutely no positive change in their behavior in the form of genuine social interactions, give another ½ of a 5 mg tablet in the morning.
Day 3: No matter what happened, give no Namenda on Day 3.
If there has been no improvement, give ½ of a 5 mg tablet in the morning.
Day 5: If there has been no improvement since Day 1, give ½ of a 5 mg tablet in the morning.
Day 6: No matter what happens, give no Namenda on Day 6.
Day 7: If there has been only minimal improvement after a total of 7.5 mg of Namenda, give ½ of a 5 mg Namenda. If there has been no improvement after a total of 10 mg of Namenda, give ½ of a 5 mg Namenda. Otherwise, give no Namenda on Day 7. […]
Here is a sample chart for an example patient following the steps and a plan for week 2. […]
Side effects of Namenda: how to know if the dose is too high. The negative social effects of Namenda can be described as disinhibitory. This mean that the person's normal understanding of personal boundaries with others is lost—i.e., the patient loses their inhibition like someone who is intoxicated. They may be excessively aggressive both verbally and physically about incidental matters. They may become intrusive into other people's business. They may become flirtatious or aggressive. If a person has any of these behaviors it most likely means that the Namenda dose is getting too high.

For series [4], the system named is seizure patient with rage behavior. The series is described as follows: Case number 2: seizure patient with rage behavior. How it is done:
The patient had been on a large dose thioridazine (400 mg/day).
One drives fear and involves beta-receptors. The other drives aggression and involves alpha-receptors.

For series [5], the system named is schizophrenic acute psychosis patients and patients having autism spectrum social disorder. Briefly: Mecamylamine in patients with schizophrenic acute psychosis or autism spectrum social disorder: verbal communication. How it is done:
In some embodiments, the effective dose of mecamylamine is 0.025 mg/kg to about 0.125 mg/kg twice a week. In some cases, the effective dose of mecamylamine in schizophrenic acute psychosis patients and patients having autism spectrum social disorder results in improved verbal communication from 50 to 150%. In some embodiments, one dose may have an effect of improved verbal communication up to two months.

The mark [6] stands for this setting: Day 1, dose given ½ of a 5 mg Namenda.
The mark [7] stands for this setting: Day 2, dose given ½ of a 5 mg Namenda.
The mark [8] stands for this setting: Day 5, dose given ½ of a 5 mg Namenda.

On to `O=C1CCc2ccc(OCCCCN3CCN(c4cccc(Cl)c4Cl)CC3)cc2N1` [Abilify, aripiprazole], for which the success of treatment result in series [1] is on record as “successful”.
On to `CC12CC3CC(C)(C1)CC(N)(C3)C2` [Namenda, memantine], for which the results for the effect on socialization entry in series [2] and in series [2] (listed as Mematine) were “increase their socialization” and “increasing their socialization”, respectively. Also, the Improvement entry in series [3] (setting [6]) is on record as “None”; in series [3] (setting [7]), “None”; in series [3] (Day 3, no dose given), “Slight”; in series [3] (Day 4, no dose given), “Slight”; in series [3] (setting [8]), “Good”; in series [3] (Day 6, no dose given), “Continues Good”. Further, in series [3] (Day 7, no dose given), the Improvement result is “Same”. Also, the “Side Effects or Disinhibition” value in series [3] (setting [6]) is “None”; in series [3] (setting [7]) it was “None”; in series [3] (Day 3, no dose given) it was “None”; in series [3] (Day 4, no dose given) it was “None”; in series [3] (setting [8]), “None”; in series [3] (Day 6, no dose given) it was “None”. Besides, the “Side Effects or Disinhibition” value in series [3] (Day 7, no dose given) is “None”. The “Degree or Detail of Improvement” value in series [3] (Day 3, no dose given) is given as “Spoke normally”; in series [3] (Day 4, no dose given) it was “Same as Day 3”; in series [3] (setting [8]), “Ate their meal”; in series [3] (Day 6, no dose given), “Same as Day 4”.
As to `COc1cc2nc(N3CCN(C(=O)C4COc5ccccc5O4)CC3)nc(N)c2cc1OC` (stereo not drawn) [doxazosin], the “effect on severe psychotic symptoms” value in series [4] (doxazosin added, patient on propranolol and haloperidol) is reported as “stopped the severe psychotic symptoms”.
On to `CNC1(C)C2CCC(C2)C1(C)C` (stereo not drawn) [mecamylamine], for which the success of treatment entry in series [1] is “successful”. Further, the “duration of effect of improved verbal communication” value in series [5] (one dose) is reported as “up to two”; in series [5] (one weekly protocol) it was “up to 4 months”.
Consider `CC(C)NCC(O)COc1cccc2ccccc12` (stereo not drawn) [propranolol], for which the “character of rage when it occurred” value in series [4] (on propranolol, compared with before beta blocker treatment) was “wilder and more psychotic”. The frequency of rages result in series [4] (on the beta blocker propranolol) is listed as “less frequent rages”.
